# Assays:
# Assay type in all cases: functional, Stomach
# Rattus norvegicus [1] = experiment: Antiulcer activity in Wistar Rattus norvegicus (rat) assessed as decrease in total acidity of gastric secretions at 0.0579 mM/kg, po administered 1 hr prior to pylorous ligation measured after 19 hr by titRattus norvegicus (rat)ion assay relative to untreated control; parameters: scale not given: the % may be the effect or the level left
# Rattus norvegicus [2] = experiment: Antiulcer activity in Wistar Rattus norvegicus (rat) assessed as decrease in total volume of gastric secretions at 0.1158 mM/kg, po administered 1 hr prior to pylorous ligation measured after 19 hr relative to untreated control; parameters: scale not given: the % may be the effect or the level left
# Rattus norvegicus [3] = experiment: Antiulcer activity in Wistar Rattus norvegicus (rat) assessed as decrease in total acidity of gastric secretions at 0.0289 mM/kg, po administered 1 hr prior to pylorous ligation measured after 19 hr by titRattus norvegicus (rat)ion assay relative to untreated control; parameters: scale not given: the % may be the effect or the level left
# Rattus norvegicus [4] = experiment: Antiulcer activity in Wistar Rattus norvegicus (rat) assessed as change in pH of gastric secretions at 0.0289 mM/kg, po administered 1 hr prior to pylorous ligation measured after 19 hr by digital pH metric analysis relative to untreated control
# Rattus norvegicus [5] = experiment: Antiulcer activity in Wistar Rattus norvegicus (rat) assessed as increase in pH of gastric secretions at 0.1158 mM/kg, po administered 1 hr prior to pylorous ligation measured after 19 hr by digital pH metric analysis relative to untreated control
# Rattus norvegicus [6] = experiment: Antiulcer activity in Wistar Rattus norvegicus (rat) assessed as increase in pH of gastric secretions at 0.0579 mM/kg, po administered 1 hr prior to pylorous ligation measured after 19 hr by digital pH metric analysis relative to untreated control
# Rattus norvegicus [7] = experiment: Antiulcer activity in Wistar Rattus norvegicus (rat) assessed as decrease in total volume of gastric secretions at 0.0289 mM/kg, po administered 1 hr prior to pylorous ligation measured after 19 hr relative to untreated control; parameters: scale not given: the % may be the effect or the level left
# Rattus norvegicus [8] = experiment: Antiulcer activity in Wistar Rattus norvegicus (rat) assessed as decrease in total volume of gastric secretions at 0.0579 mM/kg, po administered 1 hr prior to pylorous ligation measured after 19 hr relative to untreated control; parameters: scale not given: the % may be the effect or the level left
# Rattus norvegicus [9] = experiment: Antiulcer activity in Wistar Rattus norvegicus (rat) assessed as decrease in total acidity of gastric secretions at 0.1158 mM/kg, po administered 1 hr prior to pylorous ligation measured after 19 hr by titRattus norvegicus (rat)ion assay relative to untreated control; parameters: scale not given: the % may be the effect or the level left
Structure (SMILES),Activity (Rattus norvegicus [1]) [%],Activity (Rattus norvegicus [2]) [%],Activity (Rattus norvegicus [3]) [%],Activity (Rattus norvegicus [4]) [%],Activity (Rattus norvegicus [5]) [%],Activity (Rattus norvegicus [6]) [%],Activity (Rattus norvegicus [7]) [%],Activity (Rattus norvegicus [8]) [%],Activity (Rattus norvegicus [9]) [%]
COc1nc(C[S+]([O-])c2nc3ccccc3[nH]2)nc2sc3c(c12)CCCC3 (configuration not stated),37.69,50,24.15,6.65,23.55,17.33,23.93,51.06,39.27
[O-][S+](Cc1nc(OCC(F)(F)F)c2c3c(sc2n1)CCCC3)c1nc2ccccc2[nH]1 (configuration not stated),38.14,34.57,27.08,5.45,14.13,6.28,60.1,29.78,52.14
COc1ccc2[nH]c([S+]([O-])Cc3nc(OC)c4c5c(sc4n3)CCCC5)nc2c1 (configuration not stated),33.86,57.71,29.57,1.44,10.33,9.05,69.94,77.39,50.33
COc1nc(C[S+]([O-])c2nc3ccccc3[nH]2)nc2scc(-c3ccccc3)c12 (configuration not stated),25.28,72.34,23.92,0.72,9.91,6.19,70.74,61.96,36.79
[O-][S+](Cc1nc(OCC(F)(F)F)c2c(-c3ccccc3)csc2n1)c1nc2ccccc2[nH]1 (configuration not stated),26.18,50.53,16.93,3.69,8.09,0.1,49.46,45.21,45.37
COc1ccc2[nH]c([S+]([O-])Cc3nc(OC)c4c(-c5ccccc5)csc4n3)nc2c1 (configuration not stated),23.7,52.92,17.6,3.35,10.84,4.02,47.07,46.01,38.6
COc1nc(C[S+]([O-])c2nc3ccccc3[nH]2)nc2scc(-c3ccc(Cl)cc3)c12 (configuration not stated),42.43,69.68,32.05,8.96,23.31,11.17,52.65,58.24,51.46
[O-][S+](Cc1nc(OCC(F)(F)F)c2c(-c3ccc(Cl)cc3)csc2n1)c1nc2ccccc2[nH]1 (configuration not stated),41.76,60.37,22.34,2.03,32.86,17.97,43.08,50.26,52.82
COc1ccc2[nH]c([S+]([O-])Cc3nc(OC)c4c(-c5ccc(Cl)cc5)csc4n3)nc2c1 (configuration not stated),22.12,55.58,5.41,5.41,3.048,2.25,28.19,43.88,37.92
COc1ccc2[nH]c([S+]([O-])Cc3nc(Cl)c4c5c(sc4n3)CCCC5)nc2c1 (configuration not stated),41.76,59.84,24.37,5.07,20.03,11.99,44.41,53.98,48.08
COc1ccc2[nH]c([S+]([O-])Cc3nc(Cl)c4c(-c5ccccc5)csc4n3)nc2c1 (configuration not stated),25.5,76.32,20.76,5.45,14.36,5.54,42.02,68.08,40.18
COc1ccc2[nH]c([S+]([O-])Cc3nc(Cl)c4c(-c5ccc(Cl)cc5)csc4n3)nc2c1 (configuration not stated),24.37,73.67,18.05,1.44,19.72,5.91,56.64,67.28,44.01
COc1ccc2[nH]c([S+]([O-])Cc3ncc(C)c(OC)c3C)nc2c1 (configuration not stated) [OMEPRAZOLE],56.65,73.93,49.66,50.9,62.67,55.79,53.72,63.55,71.55

# — ChEMBL document CHEMBL3044567, “Synthesis and biological evaluation of novel condensed pyrimidinylmethylsulfinylbenzimidazoles as antiulcer agent” (2013)
